Drawing on patent US8586505B2 (SDS Biotech K. K., priority 2009, dated 2013), this text covers pest or weed control and melting point for 14 compounds.

One data set has as its system Phytophthora infestans. Nature of the data set: whole plant or invertebrate. Format: in vivo. The conditions noted are these: in Solanum lycopersicum, 96 h, read-out: Determination of control effect (preventive value).
In data set [1] the test system is Pseudoperonospora cubensis. The experiment in a line: Test of examining control effect on Pseudoperonospora cubensis (potted cucumber plants). Format: in vivo. The conditions noted are these: 96 h, 10% wettable powder adjusted to 125 ppm, 15 ml/pot sprayed on potted cucumber plants one day before spray inoculation, assessed after 1 day wet chamber and 3 days greenhouse, read-out: Determination of control effect (preventive value) on Pseudoperonospora cubensis. The method, boiled down:
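Preventive treatment: 125 ppm sample agent solution (from 10% wettable powder) sprayed at 15 ml/pot on 2.5-leaf Sagamihanjiro cucumbers, then P. cubensis inoculated next day at 1.0×10^4 cells/ml. Incubation was 1 day wet at 21° C plus 3 days greenhouse. Lesion area rate compared with untreated gives preventive value (≥60% high).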

In the next data set the test system is Sphaerotheca fuliginea. Nature of the data set: Test of examining control effect on Sphaerotheca fuliginea (potted cucumber plants). In kind it is in vivo. The settings on record: Podosphaera fuliginea, 336 h; 10% wettable powder adjusted to 125 ppm, 15 ml/pot sprayed on potted cucumber plants one day before spray inoculation; assessed after 14 days in greenhouse; read-out: Determination of control effect (preventive value) on Sphaerotheca fuliginea. An outline of the steps:
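Control effect rated high at preventive value 60–100% and low below 60%, from lesion area relative to untreated plants 14 days after spray inoculation with S. fuliginea (1.0×10^5 cells/ml). Compound applied at 125 ppm as wettable-powder spray one day before inoculation, on 2nd-leaf-stage Sagamihanjiro cucumber.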

A word on the melting point: it is the temperature, or range, at which the solid turns liquid. In turn, `OCc1cnccc1C#CCCNc1ncnc2ccccc12` [compound 201] showed a melting point of 182 to 186 °C. The pest or weed control at 125 ppm with Phytophthora infestans is 0 to 60%. Moreover, the pest or weed control at 125 µg/mL in data set [1] fell in the range of 60 to 100%. For the same compound, the pest or weed control at 125 µg/mL in the data set with Sphaerotheca fuliginea was in the range of 60 to 100%.

`Cc1scnc1C#CCCNc1ncnc2sccc12` [compound 65] registered a melting point of 148 to 150 °C. Moreover, the pest or weed control at 125 ppm with Phytophthora infestans fell in the range of 60 to 100%. Moreover, in data set [1], the pest or weed control at 125 µg/mL fell in the range of 60 to 100%. The pest or weed control at 125 µg/mL in the data set with Sphaerotheca fuliginea lay within 60 to 100%.

For the compound `Clc1cccc(C#CCCNc2ncnc3ccccc23)c1Cl` [compound 171], the melting point lay in the range of 175 to 176 °C. For the same compound, in the data set on Phytophthora infestans, the pest or weed control at 125 ppm was 60 to 100%. Moreover, the pest or weed control at 125 µg/mL in data set [1] is 60 to 100%. The pest or weed control at 125 µg/mL in the data set with Sphaerotheca fuliginea lay within 60 to 100%.

The compound `FC(F)(F)c1ccc(Cl)c(C#CCCNc2ncnc3ccccc23)c1` [compound 176] displayed a melting point of 144 to 145 °C. Also, the pest or weed control at 125 ppm with Phytophthora infestans was 0 to 60%. The pest or weed control at 125 µg/mL in data set [1] is 60 to 100%. Moreover, the pest or weed control at 125 µg/mL in the data set on Sphaerotheca fuliginea was in the range of 60 to 100%.

The compound `CSc1cccc(C#CCCNc2ncnc3ccccc23)c1` [compound 116] returned a melting point of 141 to 142 °C. Further, in the data set with Phytophthora infestans, the pest or weed control at 125 ppm lay within 60 to 100%. For the same compound, in data set [1], the pest or weed control at 125 µg/mL was 60 to 100%. Further, in the data set with Sphaerotheca fuliginea, the pest or weed control at 125 µg/mL was in the range of 60 to 100%.

Regarding `C(#Cc1csc(-c2cccnc2)n1)CCNc1ncnc2sccc12` [compound 81], the melting point fell in the range of 175 to 177 °C. In addition, the pest or weed control at 125 ppm with Phytophthora infestans is 0 to 60%. Also, in data set [1], the pest or weed control at 125 µg/mL is 60 to 100%. Also, the pest or weed control at 125 µg/mL in the data set on Sphaerotheca fuliginea is 0 to 60%.

The compound `CC(=O)OCc1nc(C#CCCNc2ncnc3sccc23)cs1` [compound 73] yielded a melting point of 128 to 129 °C. The pest or weed control at 125 ppm in the data set on Phytophthora infestans is 60 to 100%. Also, the pest or weed control at 125 µg/mL in data set [1] fell in the range of 60 to 100%. Moreover, in the data set with Sphaerotheca fuliginea, the pest or weed control at 125 µg/mL lay in the range of 60 to 100%.

`COCc1ccccc1C#CCCNc1ncnc2ccc(I)cc12` [compound 322] yielded a melting point of 121 to 123 °C. For the same compound, in the data set on Phytophthora infestans, the pest or weed control at 125 ppm lay within 0 to 60%. In data set [1], the pest or weed control at 125 µg/mL lay in the range of 60 to 100%. Besides, the pest or weed control at 125 µg/mL with Sphaerotheca fuliginea fell in the range of 60 to 100%.

As to `C(#Cc1ccccc1)CC(Nc1ncnc2ccccc12)c1ccccc1` (centres unmarked) [compound 301, 4-[(1,4-diphenyl-3-butynyl)amino]quinazoline], the melting point lay within 141 to 143 °C. Besides, the pest or weed control at 125 ppm with Phytophthora infestans lay within 0 to 60%. Moreover, in data set [1], the pest or weed control at 125 µg/mL fell in the range of 0 to 60%. Moreover, the pest or weed control at 125 µg/mL with Sphaerotheca fuliginea was 0 to 60%.

In turn, `CC(C)[Si](C#CCCNc1ncnc2sccc12)(C(C)C)C(C)C` [compound 4] came in with a melting point of 196 to 198 °C. In the data set with Phytophthora infestans, the pest or weed control at 125 ppm fell in the range of 0 to 60%. For the same compound, in data set [1], the pest or weed control at 125 µg/mL is 0 to 60%. Also, the pest or weed control at 125 µg/mL in the data set with Sphaerotheca fuliginea fell in the range of 0 to 60%.

`Cc1cccc(C#CCCNc2ncnc3sccc23)c1` [compound 18] came in with a melting point of 120 to 123 °C. The pest or weed control at 125 ppm with Phytophthora infestans fell in the range of 0 to 60%. Moreover, the pest or weed control at 125 µg/mL in data set [1] was 60 to 100%. For the same compound, in the data set on Sphaerotheca fuliginea, the pest or weed control at 125 µg/mL was in the range of 60 to 100%.

Take `C(#Cc1ccccc1)CCNc1ncnc2[nH]cnc12` [compound 378]: the melting point fell in the range of 207 to 208 °C. The pest or weed control at 125 ppm in the data set on Phytophthora infestans lay in the range of 0 to 60%. For the same compound, in data set [1], the pest or weed control at 125 µg/mL was in the range of 0 to 60%. The pest or weed control at 125 µg/mL in the data set with Sphaerotheca fuliginea was in the range of 0 to 60%.

The compound `COCc1cc(F)c(F)cc1C#CCCNc1ncnc2ccccc12` [compound 146] yielded a melting point of 121 to 125 °C. The pest or weed control at 125 ppm in the data set with Phytophthora infestans fell in the range of 60 to 100%. Further, the pest or weed control at 125 µg/mL in data set [1] lay in the range of 60 to 100%. In addition, the pest or weed control at 125 µg/mL in the data set on Sphaerotheca fuliginea is 60 to 100%.

Regarding `CCOC(=O)c1sc(C#CCCNc2ncnc3ccccc23)nc1C` [compound 214], the melting point fell in the range of 139 to 140 °C. Further, the pest or weed control at 125 ppm with Phytophthora infestans lay within 0 to 60%. For the same compound, in data set [1], the pest or weed control at 125 µg/mL was in the range of 60 to 100%. For the same compound, in the data set on Sphaerotheca fuliginea, the pest or weed control at 125 µg/mL lay in the range of 60 to 100%.
